In patent US7449545B2, “Antimicrobial bolisin peptides” (IPF Pharmaceuticals GmbH, priority 2001, dated 2008):
Ends that are not written are not given here.

What was measured:
Format in all cases: cell-based
[1] = tested on: Pseudomonas aeruginosa ATCC 9027; conditions: Mueller Hinton Broth; complete growth inhibition not achieved
Excerpt: (§1) The bolisin analogues of the present invention were examined for their suitability as antibiotic therapeutical agents by means of various biological tests. Thus, the chemically synthesized peptides were examined for their antimicrobial effectiveness against three Gram-positive and three Gram-negative bacterial strains as well as against a yeast.
(§2) The following microorganisms were used: • Gram-positive: Staphylococcus aureus ATCC 25923 • Enterococcus faecalis ATCC 51299 (vancomycin-resistant) • Streptococcus pneumoniae DSM 11865 (penicillin-resistant) • Gram-negative: Escherichia coli ATCC 25922 • Pseudomonas aeruginosa ATCC 9027 • Klebsiella pneumoniae ATCC 10031 • Yeast: Candida albicans ATCC 10231
(§3) The antibiotic activity of bolisin analogues was examined by determining the minimum inhibition concentration. The minimum inhibition concentration of an analogue designates the lowest peptide concentration which is required to inhibit the growth of microorganisms completely after an incubation time of 18±2 h. This method allows to obtain a quantitative result about the antimicrobial potency of the peptides. These examinations were performed by analogy with the recommendations (M7-A3) edited by the NCCLS (National Committee for Clinical Laboratory Standards) by applying a dilution test in a liquid medium using chemically synthesized peptides (peptide sequences according to claims 1 to 3). Mueller Hinton Broth was used as the test medium according to the NCCLS recommendations unless indicated otherwise. […] The minimum inhibition concentrations are stated in [μg/ml].
(§4) A complete growth inhibition could not be achieved in this case. For determining the minimum inhibition concentration, the following microorganisms were used: • 1. Staphylococcus aureus ATCC 25923 • 2. Enterococcus faecalis ATCC 51299 (vancomycin-resistant) • 3. Streptococcus pneumoniae DSM 11865 (penicillin-resistant) • 4. Escherichia coli ATCC 25922 • 5. Pseudomonas aeruginosa ATCC 9027 • 6. Klebsiella pneumoniae ATCC 10031 • 7. Candida albicans ATCC 10231

[2] = tested on: Enterococcus faecalis ATCC 51299 (vancomycin-resistant); conditions: ATCC 51299, 2 h
Excerpt: as §1, §2
as §3, with “The minimum inhibition concentration of an analogue designates the lowest peptide concentration which is required to inhibit the growth of microorganisms completely after an incubation time of 18±2 h.” left out
as §4

[3] = tested on: Candida albicans ATCC 10231; conditions: for minimum inhibition concentration: ATCC 10231, 2 h; for peptide concentration giving 75% inhibition of growth (value in parentheses): Mueller Hinton Broth, complete growth inhibition not achieved
Excerpt: as §1, §2
as §3, with “The minimum inhibition concentration of an analogue designates the lowest peptide concentration which is required to inhibit the growth of microorganisms completely after an incubation time of 18±2 h.” left out
as §4

[4] = tested on: Escherichia coli ATCC 25922; conditions: ATCC 25922, 2 h
Excerpt: as §1, §2
as §3, with “The minimum inhibition concentration of an analogue designates the lowest peptide concentration which is required to inhibit the growth of microorganisms completely after an incubation time of 18±2 h.” left out
as §4

[5] = tested on: Klebsiella pneumoniae ATCC 10031; conditions: ATCC 10031, 2 h
Excerpt: as §1, §2
as §3, with “The minimum inhibition concentration of an analogue designates the lowest peptide concentration which is required to inhibit the growth of microorganisms completely after an incubation time of 18±2 h.” left out
as §4

[6] = tested on: Staphylococcus aureus ATCC 25923; conditions: ATCC 25923, 2 h
Excerpt: as §1, §2
as §3, with “The minimum inhibition concentration of an analogue designates the lowest peptide concentration which is required to inhibit the growth of microorganisms completely after an incubation time of 18±2 h.” left out
as §4

[7] = tested on: Streptococcus pneumoniae DSM 11865 (penicillin-resistant); conditions: DSM 11865, 2 h
Excerpt: as §1, §2
as §3, with “The minimum inhibition concentration of an analogue designates the lowest peptide concentration which is required to inhibit the growth of microorganisms completely after an incubation time of 18±2 h.” left out
as §4

Substance	peptide concentration giving 75% inhibition of growth (value in parentheses) [1]	minimum inhibition concentration [2] [µg/mL]	minimum inhibition concentration [3] [µg/mL]	minimum inhibition concentration [4] [µg/mL]	minimum inhibition concentration [5] [µg/mL]	minimum inhibition concentration [6] [µg/mL]	minimum inhibition concentration [7] [µg/mL]	peptide concentration giving 75% inhibition of growth (value in parentheses) [3]
YIVRKIRSAWKRWKALK-OH [BOL-79, YIVRKIRSAWKRWKALK]	(4.7) μg/ml	>300	4.7	3.125	2.35	9.375	300	
YIVYKIRSAWKRWKAL [BOL-67, YIVYKIRSAWKRWKAL]	(50) μg/ml	100	18.75	25	37.5	25	100	
YIVYKIRSARKRWKAL [BOL-68, YIVYKIRSARKRWKAL]	(200) μg/ml	200	200	200	300	200	300	
YIVYKIRWAKKRWKALK-OH [BOL-60, YIVYKIRWAKKRWKALK]	(18.75) μg/ml	25		100	18.75	50	50	(18.75) μg/ml
YIVYKIRSARKRWKALK-OH [BOL-46, YIVYKIRSARKRWKALK]	(100) μg/ml	200	150	200	150	300	200	
YIVYKIRSAWKRWKALK-OH [BOL-45, YIVYKIRSAWKRWKALK]	(25) μg/ml	100	18.75	12.5	4.7	18.75	100	
YIVRKIRSAWKRRKALK-OH [BOL-80, YIVRKIRSAWKRRKALK]	(18.75) μg/ml	>300	37.5	>300	150	>300	>300	
YIVYKIRSAWKRRK-OH [BOL-69, YIVYKIRSAWKRRK]	(200) μg/ml	150	37.5	150	300	300	200	
YIVYKIRSAKKRWKALK-OH [BOL-57, YIVYKIRSAKKRWKALK]	(200) μg/ml	>300	300	>300	300	>300	>300	
YIVYKIRSAWKRWK-OH [BOL-70, YIVYKIRSAWKRWK]	(100) μg/ml	150	37.5	100	75	100	150	
YIVYKIRRAWKRSKALK-OH [BOL-53, YIVYKIRRAWKRSKALK]	(75) μg/ml	200		200	100	150	200	(37.5) μg/ml
YIVYKIRWARKRRK-OH [BOL-73, YIVYKIRWARKRRK]	(9.375) μg/ml	25	9.375	50	18.75	37.5	18.75	
YIVWKIRSARKRRKALK-OH [BOL-74, YIVWKIRSARKRRKALK]	(12.5) μg/ml	150	75	300	18.75	300	150	
YIVYKIRWARKRRKALK-OH [BOL-50, YIVYKIRWARKRRKALK]	(6.25) μg/ml	25	9.375	50	9.375	37.5	18.75	
YIVWKIRSAWKRSKALK-OH [BOL-75, YIVWKIRSAWKRSKALK]	(37.5) μg/ml	200	37.5	75	75	150	150	
YIVYKIRWARKRRKAL [BOL-72, YIVYKIRWARKRRKAL]	(12.5) μg/ml	25	18.75	100	18.75	75	18.75	
YIVYKIRSAWKRKKALK-OH [BOL-58, YIVYKIRSAWKRKKALK]	(100) μg/ml	>300		>300	100	>300	300	(75) μg/ml
YIVYKIRWAWKRSKALK-OH [BOL-47, YIVYKIRWAWKRSKALK]	(25) μg/ml	25	18.75	18.75	9.375	18.75	18.75	
YIVYKIRSAKKRKKALK-OH [BOL-56, YIVYKIRSAKKRKKALK]	(200) μg/ml	>300		>300	300	>300	>300	(300) μg/ml
KYIVYKIRWARKRRKALK-OH [BOL-87, KYIVYKIRWARKRRKALK]	(9.375) μg/ml	37.5	9.375	18.75	9.375	9.375	9.375	
